{"source": "patent US8309550B2", "about": "“Kinase inhibitors and their use as pharmaceutical agents” (Shanghai Genomics, Inc., priority 2011, dated 2012)", "key": {"SRC": {"molecular_target": "SRC (Homo sapiens, UniProt P12931)", "sequence (P12931 whole entry, species assumed)": "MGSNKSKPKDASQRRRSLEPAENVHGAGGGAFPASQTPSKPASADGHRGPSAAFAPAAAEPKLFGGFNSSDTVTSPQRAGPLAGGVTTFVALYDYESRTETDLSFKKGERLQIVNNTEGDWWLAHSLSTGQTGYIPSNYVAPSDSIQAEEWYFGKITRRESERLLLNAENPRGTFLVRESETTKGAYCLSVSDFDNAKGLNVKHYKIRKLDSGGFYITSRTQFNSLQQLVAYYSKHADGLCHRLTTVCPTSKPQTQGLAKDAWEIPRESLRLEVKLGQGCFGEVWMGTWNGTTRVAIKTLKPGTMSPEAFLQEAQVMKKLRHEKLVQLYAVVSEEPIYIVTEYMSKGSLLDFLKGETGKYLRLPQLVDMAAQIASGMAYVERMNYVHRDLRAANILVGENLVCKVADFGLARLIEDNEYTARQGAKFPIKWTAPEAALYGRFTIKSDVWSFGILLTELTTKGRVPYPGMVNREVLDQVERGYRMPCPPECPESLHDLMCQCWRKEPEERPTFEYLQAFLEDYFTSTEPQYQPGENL", "assay": "Kinase assay SRC (Table III)", "conditions": "read-out: Target biochemical activity IC50 SRC", "method": "(§1) Kinase assays. The compounds were tested for their ability to inhibit kinases."}, "CDK5/p35": {"molecular_target": "T1, CDK5/p35 (Homo sapiens, UniProt Q00535)", "T1 construct": "purchased Invitrogen PV3000", "T1 sequence (Q00535 whole entry)": "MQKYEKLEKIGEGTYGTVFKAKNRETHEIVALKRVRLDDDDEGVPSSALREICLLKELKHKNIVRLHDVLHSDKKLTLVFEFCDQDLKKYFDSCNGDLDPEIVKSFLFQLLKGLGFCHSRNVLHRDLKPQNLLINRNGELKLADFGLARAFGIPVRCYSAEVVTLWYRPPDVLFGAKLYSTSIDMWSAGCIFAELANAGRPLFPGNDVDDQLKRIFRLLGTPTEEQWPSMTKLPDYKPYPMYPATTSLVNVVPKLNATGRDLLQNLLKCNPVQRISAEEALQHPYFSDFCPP", "T1 sequence (Q15078 whole entry partner)": "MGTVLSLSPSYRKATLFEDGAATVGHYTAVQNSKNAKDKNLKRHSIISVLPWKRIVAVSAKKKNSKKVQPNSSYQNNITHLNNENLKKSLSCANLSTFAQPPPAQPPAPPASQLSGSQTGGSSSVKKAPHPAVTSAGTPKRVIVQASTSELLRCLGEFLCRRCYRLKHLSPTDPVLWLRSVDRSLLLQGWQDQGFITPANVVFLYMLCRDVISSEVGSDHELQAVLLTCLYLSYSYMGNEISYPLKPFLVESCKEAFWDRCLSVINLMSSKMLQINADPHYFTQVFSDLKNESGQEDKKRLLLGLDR", "assay": "Z'-LYTE kinase assay CDK5/p35", "type": "biochemical", "conditions": "Table III; read-out: Target biochemical activity IC50 CDK5", "method": "(§2) Kinase assays. The compounds from the example above were tested for their ability to inhibit kinases. Recombinant human CDK2/cyclinA (PV3267), CDK1/cyclinB (PV3292), CDK5/p35 (PV3000) and Aurora A (PV3612) were purchased from Invitrogen (Carlsbad, Calif., USA). Kinase dosage and Z′-LYTE™ substrate for each kinase assay is as follows: CDK2/cyclinA-8 ng/reaction, Ser/Thr 12 Peptide; CDK1/cyclinB-0.8 ng/reaction, Ser/Thr 12 Peptide, CDK5/p35-0.8 ng/reaction, Ser/Thr 12 Peptide, and Aurora A-16 ng/reaction, Ser/Thr 1 Peptide. All enzymatic assays were performed using Z′-LYTE™ Kinase Assay Kits and were carried out following protocols provided by Invitrogen. To prepare stock solutions, compounds were dissolved at 10 mM in 100% DMSO and stored at 4° C. in amber glass vials. Enzyme reactions were initiated by adding recombinant enzyme and Z′-LYTE™ Ser/Thr peptide substrate and ATP mixture to 384-well plates containing diluted test compounds. Kinase and corresponding peptide substrate were incubated for 1 hr at room temperature in the presence of varying amounts of test compound with reaction buffer (20 μM ATP, […] [pH 7.5], 5 mM MgCl2, 0.5 mM EGTA, 0.005% Brij-35). Development buffer was added and incubated for another one hour at room temperature. Reactions were terminated by addition of stop buffer, and fluorescence emission intensity ratio 445 nm/520 nm (excited at 400 nm) was quantified by VICTOR-3 Multilabel Reader (Perkin-Elmer, Waltham, Mass., USA). Phosphorylation was calculated from the emission ratio. IC50 was determined using Sigmoid curve-fitting software Origin 6.0 (MicroCal, LLC, Northampton, Mass., USA)."}, "CDK1/cyclinB": {"molecular_target": "T2, CDK1/cyclinB (Homo sapiens, UniProt P06493)", "T2 construct": "purchased Invitrogen PV3292", "T2 sequence (P06493 whole entry)": "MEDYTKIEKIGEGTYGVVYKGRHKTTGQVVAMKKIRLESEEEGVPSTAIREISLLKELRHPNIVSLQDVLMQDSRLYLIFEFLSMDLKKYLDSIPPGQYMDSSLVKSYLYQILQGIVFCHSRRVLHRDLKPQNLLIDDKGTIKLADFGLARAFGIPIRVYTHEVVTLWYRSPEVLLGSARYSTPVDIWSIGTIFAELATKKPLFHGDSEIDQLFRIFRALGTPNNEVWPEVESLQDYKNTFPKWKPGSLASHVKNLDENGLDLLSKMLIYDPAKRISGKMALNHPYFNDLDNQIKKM", "T2 sequence (P14635 whole entry partner)": "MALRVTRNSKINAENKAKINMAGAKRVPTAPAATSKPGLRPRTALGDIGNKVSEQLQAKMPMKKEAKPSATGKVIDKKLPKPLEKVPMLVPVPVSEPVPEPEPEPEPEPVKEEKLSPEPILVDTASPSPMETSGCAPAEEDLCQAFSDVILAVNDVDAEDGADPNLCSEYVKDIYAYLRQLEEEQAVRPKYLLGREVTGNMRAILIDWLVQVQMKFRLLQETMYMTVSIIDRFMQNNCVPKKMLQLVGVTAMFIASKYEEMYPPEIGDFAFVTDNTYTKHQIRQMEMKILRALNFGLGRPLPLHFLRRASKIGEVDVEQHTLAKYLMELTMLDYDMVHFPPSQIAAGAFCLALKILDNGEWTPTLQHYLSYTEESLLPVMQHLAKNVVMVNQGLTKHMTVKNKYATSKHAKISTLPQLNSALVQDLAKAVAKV", "assay": "Z'-LYTE kinase assay CDK1/cyclinB", "type": "biochemical", "conditions": "Table III; read-out: Target biochemical activity IC50 CDK1", "method": "as §2"}, "CDK7": {"molecular_target": "CDK7 (Homo sapiens, UniProt P50613)", "sequence (P50613 whole entry, species assumed)": "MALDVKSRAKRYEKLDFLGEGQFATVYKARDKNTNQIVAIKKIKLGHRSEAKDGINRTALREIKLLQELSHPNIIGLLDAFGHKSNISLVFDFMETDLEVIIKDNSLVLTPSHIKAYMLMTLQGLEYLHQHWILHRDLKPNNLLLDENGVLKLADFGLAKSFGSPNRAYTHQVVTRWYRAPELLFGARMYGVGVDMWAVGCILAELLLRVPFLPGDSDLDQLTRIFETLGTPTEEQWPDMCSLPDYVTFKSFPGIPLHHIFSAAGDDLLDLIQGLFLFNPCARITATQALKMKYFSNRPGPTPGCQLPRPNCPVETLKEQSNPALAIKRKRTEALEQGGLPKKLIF", "sequence (P51946 whole entry partner, species assumed)": "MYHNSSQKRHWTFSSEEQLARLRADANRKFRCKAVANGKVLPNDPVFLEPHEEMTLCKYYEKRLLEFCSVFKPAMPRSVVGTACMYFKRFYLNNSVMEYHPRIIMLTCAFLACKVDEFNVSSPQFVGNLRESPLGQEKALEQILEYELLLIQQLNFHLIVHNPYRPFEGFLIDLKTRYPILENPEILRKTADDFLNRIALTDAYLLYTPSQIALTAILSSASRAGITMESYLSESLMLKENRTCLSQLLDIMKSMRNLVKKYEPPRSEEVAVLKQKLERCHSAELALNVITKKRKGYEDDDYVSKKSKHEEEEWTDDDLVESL", "sequence (P51948 whole entry partner, species assumed)": "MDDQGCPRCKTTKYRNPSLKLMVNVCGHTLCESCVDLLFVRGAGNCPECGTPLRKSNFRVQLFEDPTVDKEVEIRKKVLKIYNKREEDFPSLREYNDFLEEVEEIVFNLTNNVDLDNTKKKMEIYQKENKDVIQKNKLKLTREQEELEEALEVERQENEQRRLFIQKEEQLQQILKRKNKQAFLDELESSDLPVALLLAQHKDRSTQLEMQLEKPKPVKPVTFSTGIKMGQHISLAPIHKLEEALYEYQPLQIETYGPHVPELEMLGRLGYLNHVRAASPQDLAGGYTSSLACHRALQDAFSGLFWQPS", "assay": "Kinase assay CDK7 (Table III)", "conditions": "read-out: Target biochemical activity IC50 CDK7", "method": "as §1"}, "CDK9": {"molecular_target": "CDK9 (Homo sapiens, UniProt P50750)", "sequence (P50750 whole entry, species assumed)": "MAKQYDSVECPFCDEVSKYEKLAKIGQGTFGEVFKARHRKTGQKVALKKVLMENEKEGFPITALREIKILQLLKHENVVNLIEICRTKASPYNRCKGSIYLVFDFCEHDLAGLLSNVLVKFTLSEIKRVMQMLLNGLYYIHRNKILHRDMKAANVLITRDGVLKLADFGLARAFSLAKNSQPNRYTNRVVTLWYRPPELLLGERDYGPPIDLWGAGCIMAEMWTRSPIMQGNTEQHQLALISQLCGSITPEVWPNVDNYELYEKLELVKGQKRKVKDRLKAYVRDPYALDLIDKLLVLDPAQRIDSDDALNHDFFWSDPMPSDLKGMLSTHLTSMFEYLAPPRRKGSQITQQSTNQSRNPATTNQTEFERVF", "sequence (O60563 whole entry partner, species assumed)": "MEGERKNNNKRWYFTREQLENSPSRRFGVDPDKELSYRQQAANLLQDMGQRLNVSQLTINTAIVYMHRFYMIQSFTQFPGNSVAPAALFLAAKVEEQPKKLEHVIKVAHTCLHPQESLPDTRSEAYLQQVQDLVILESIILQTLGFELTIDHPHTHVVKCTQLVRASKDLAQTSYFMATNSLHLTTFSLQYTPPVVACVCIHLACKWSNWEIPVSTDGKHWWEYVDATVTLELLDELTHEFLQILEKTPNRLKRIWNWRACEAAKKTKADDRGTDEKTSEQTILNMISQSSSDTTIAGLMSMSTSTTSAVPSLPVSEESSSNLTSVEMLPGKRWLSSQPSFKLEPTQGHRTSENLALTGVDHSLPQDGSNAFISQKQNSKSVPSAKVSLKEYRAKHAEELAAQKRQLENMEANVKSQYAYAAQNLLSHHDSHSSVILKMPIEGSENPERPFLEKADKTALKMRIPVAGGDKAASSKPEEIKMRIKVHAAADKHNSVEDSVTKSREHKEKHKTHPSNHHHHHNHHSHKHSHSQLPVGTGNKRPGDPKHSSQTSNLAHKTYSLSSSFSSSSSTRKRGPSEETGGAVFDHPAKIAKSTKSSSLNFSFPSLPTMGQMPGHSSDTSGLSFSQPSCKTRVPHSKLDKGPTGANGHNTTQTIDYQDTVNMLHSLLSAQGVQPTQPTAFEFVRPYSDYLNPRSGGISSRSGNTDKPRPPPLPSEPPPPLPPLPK", "assay": "CDK9 inhibitory activity, kinase assays (Table III)", "conditions": "read-out: Target biochemical activity IC50 CDK9", "method": "as §1"}, "CDK2/cyclinA": {"molecular_target": "T3, CDK2/cyclinA (Homo sapiens, UniProt P24941)", "T3 construct": "purchased Invitrogen PV3267", "assay": "Z'-LYTE kinase assay CDK2/cyclinA", "type": "biochemical", "conditions": "Table III; read-out: Target biochemical activity IC50 CDK2", "method": "as §2"}, "Aurora B": {"molecular_target": "Aurora B (Homo sapiens, UniProt Q96GD4)", "sequence (Q96GD4 whole entry)": "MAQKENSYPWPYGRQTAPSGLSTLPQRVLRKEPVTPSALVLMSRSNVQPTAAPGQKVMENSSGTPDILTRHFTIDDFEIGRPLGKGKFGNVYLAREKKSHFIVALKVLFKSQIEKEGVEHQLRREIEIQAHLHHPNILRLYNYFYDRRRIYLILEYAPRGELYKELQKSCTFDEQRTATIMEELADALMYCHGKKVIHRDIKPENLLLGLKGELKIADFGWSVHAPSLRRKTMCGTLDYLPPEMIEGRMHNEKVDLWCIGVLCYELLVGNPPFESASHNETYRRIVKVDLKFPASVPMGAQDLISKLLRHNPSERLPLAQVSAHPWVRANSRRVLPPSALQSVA", "assay": "Kinase assay Aurora B (Table I)", "type": "biochemical", "conditions": "Table III; read-out: Target biochemical activity IC50 Aurora B", "method": "[The source words this procedure for another target and reports this target under the same test.] as §2"}, "Aurora A": {"molecular_target": "T4, Aurora A (Homo sapiens, UniProt O14965)", "T4 construct": "purchased Invitrogen PV3612", "T4 sequence (O14965 1-403)": "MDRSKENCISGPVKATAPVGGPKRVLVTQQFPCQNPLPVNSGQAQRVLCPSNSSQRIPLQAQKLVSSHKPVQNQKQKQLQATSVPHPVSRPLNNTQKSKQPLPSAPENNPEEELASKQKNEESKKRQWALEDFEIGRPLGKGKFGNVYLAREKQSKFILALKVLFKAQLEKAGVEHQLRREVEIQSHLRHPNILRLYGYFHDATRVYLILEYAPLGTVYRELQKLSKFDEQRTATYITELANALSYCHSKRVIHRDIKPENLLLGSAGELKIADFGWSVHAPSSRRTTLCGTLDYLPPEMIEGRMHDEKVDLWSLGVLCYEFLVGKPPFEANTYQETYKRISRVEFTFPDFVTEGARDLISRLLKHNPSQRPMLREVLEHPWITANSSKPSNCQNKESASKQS", "assay": "Z'-LYTE kinase assay Aurora A", "type": "biochemical", "conditions": "Table III; read-out: Target biochemical activity IC50 Aurora A", "method": "as §2"}, "TSSK1": {"molecular_target": "T5, TSSK1 (Homo sapiens, UniProt Q9BXA7)", "T5 sequence (Q9BXA7 1-367)": "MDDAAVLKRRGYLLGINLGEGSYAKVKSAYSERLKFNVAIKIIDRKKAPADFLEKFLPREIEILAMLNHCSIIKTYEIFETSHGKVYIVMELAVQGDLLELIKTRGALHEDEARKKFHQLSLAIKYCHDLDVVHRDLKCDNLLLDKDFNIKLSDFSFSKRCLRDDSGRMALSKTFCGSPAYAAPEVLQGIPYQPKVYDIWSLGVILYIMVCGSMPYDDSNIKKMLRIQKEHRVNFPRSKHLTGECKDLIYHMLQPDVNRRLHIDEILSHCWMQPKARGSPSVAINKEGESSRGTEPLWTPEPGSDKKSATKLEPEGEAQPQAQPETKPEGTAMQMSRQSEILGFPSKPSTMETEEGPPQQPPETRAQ", "assay": "Kinase assay TSSK1 (Table III)", "conditions": "read-out: Target biochemical activity IC50 TSSK1", "method": "as §1"}}}
{"smiles": "CCn1cc(-c2ccnc(Nc3ccc(O)cc3)n2)c2ccnc(Cl)c21", "note": "[SG49]", "values": [{"measurement": "IC50", "setting": "SRC", "value": 4560, "unit": "nM"}, {"measurement": "IC50", "setting": "CDK5/p35", "value": 350, "unit": "nM"}, {"measurement": "IC50", "setting": "CDK1/cyclinB", "value": 190, "unit": "nM"}, {"measurement": "IC50", "setting": "CDK7", "value": "> 10000", "unit": "nM"}, {"measurement": "IC50", "setting": "CDK9", "value": 95, "unit": "nM"}, {"measurement": "IC50", "setting": "CDK2/cyclinA", "value": 16, "unit": "nM"}, {"measurement": "IC50", "setting": "Aurora B", "value": "> 10000", "unit": "nM"}, {"measurement": "IC50", "setting": "Aurora A", "value": 2460, "unit": "nM"}, {"measurement": "IC50", "setting": "TSSK1", "value": 1490, "unit": "nM"}]}
